This note sets out measurements from ChEMBL document CHEMBL1201862, “PubChem BioAssay data set” (2004).

The Ki is a measure of affinity in units of concentration, obtained from inhibition or displacement.

Common to all, as to type: functional
Assay [1] addresses Tyrosine-protein kinase JAK2 (Homo sapiens, UniProt O60674).
In assay [2] the target is Ribosomal protein S6 kinase alpha-3 (Homo sapiens, UniProt P51812).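 Also: measured within a kinome-wide profiling panel.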
Assay [3] concerns the target Tyrosine-protein kinase ABL1 (Homo sapiens, UniProt P00519).
Assay [4] has as its target Cyclin-dependent kinase 7 (Homo sapiens, UniProt P50613).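 Also: value comes from a kinome-wide kinase profiling panel in which CDK7 is one member.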
Assay [5] deals with Tyrosine-protein kinase Fyn (Homo sapiens, UniProt P06241).
The target of assay [6] is Mitogen-activated protein kinase 9 (Homo sapiens, UniProt P45984).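 Also: value from a kinome panel profiling assay, MAPK9 panel entry.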
Sequence of Mitogen-activated protein kinase 9 (P45984 whole entry): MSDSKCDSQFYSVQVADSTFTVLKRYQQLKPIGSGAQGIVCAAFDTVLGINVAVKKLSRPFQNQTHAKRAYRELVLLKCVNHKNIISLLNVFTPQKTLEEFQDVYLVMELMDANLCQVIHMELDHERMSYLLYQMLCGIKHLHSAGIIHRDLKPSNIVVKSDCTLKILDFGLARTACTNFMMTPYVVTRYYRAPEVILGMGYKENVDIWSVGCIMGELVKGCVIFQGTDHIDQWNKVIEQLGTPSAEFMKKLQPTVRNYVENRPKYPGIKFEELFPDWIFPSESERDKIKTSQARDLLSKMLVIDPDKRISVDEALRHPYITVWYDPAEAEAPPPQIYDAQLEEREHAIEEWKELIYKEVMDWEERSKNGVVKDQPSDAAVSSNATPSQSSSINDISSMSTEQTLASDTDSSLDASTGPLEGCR
The target in assay [7] is Tyrosine-protein kinase Lck (Homo sapiens, UniProt P06239).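 Also: lck was assayed as one member of a kinase panel.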
Sequence of Tyrosine-protein kinase Lck (P06239 whole entry): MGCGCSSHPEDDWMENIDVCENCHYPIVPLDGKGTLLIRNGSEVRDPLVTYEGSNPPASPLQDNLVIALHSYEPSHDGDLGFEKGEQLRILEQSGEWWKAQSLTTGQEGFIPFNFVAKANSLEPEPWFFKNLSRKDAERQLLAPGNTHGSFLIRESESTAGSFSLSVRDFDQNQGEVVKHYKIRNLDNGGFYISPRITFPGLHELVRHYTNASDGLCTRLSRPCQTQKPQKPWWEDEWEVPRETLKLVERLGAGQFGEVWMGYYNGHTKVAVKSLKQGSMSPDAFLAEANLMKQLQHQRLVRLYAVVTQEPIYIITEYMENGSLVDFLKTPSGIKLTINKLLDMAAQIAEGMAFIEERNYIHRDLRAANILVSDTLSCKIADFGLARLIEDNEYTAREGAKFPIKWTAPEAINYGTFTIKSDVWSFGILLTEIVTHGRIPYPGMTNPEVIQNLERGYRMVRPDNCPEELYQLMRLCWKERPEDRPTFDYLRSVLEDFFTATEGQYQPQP
Assay [8] addresses Glycogen synthase kinase-3 beta (Homo sapiens, UniProt P49841).
Assay [9] has as its target Serine/threonine-protein kinase TAO1 (Homo sapiens, UniProt Q7L7X3).
For assay [10], the target named is Vascular endothelial growth factor receptor 1 (Homo sapiens, UniProt P17948).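 Also: measured within a kinome-wide profiling panel, FLT1 as the panel member.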
Assay [11] addresses Macrophage colony-stimulating factor 1 receptor (Homo sapiens, UniProt P07333).
For assay [12], the target named is Vascular endothelial growth factor receptor 2 (Homo sapiens, UniProt P35968).
Assay [13] has as its target Glycogen synthase kinase-3 alpha (Homo sapiens, UniProt P49840).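 Also: GSK3A result taken from a broad kinome-wide kinase panel.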
Assay [14] has as its target T1, Tyrosine-protein kinase receptor TYRO3 (Homo sapiens, UniProt Q06418).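 Also: TYRO3 value obtained as one member of a kinome-wide profiling panel.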
T1 sequence (Q06418 whole entry): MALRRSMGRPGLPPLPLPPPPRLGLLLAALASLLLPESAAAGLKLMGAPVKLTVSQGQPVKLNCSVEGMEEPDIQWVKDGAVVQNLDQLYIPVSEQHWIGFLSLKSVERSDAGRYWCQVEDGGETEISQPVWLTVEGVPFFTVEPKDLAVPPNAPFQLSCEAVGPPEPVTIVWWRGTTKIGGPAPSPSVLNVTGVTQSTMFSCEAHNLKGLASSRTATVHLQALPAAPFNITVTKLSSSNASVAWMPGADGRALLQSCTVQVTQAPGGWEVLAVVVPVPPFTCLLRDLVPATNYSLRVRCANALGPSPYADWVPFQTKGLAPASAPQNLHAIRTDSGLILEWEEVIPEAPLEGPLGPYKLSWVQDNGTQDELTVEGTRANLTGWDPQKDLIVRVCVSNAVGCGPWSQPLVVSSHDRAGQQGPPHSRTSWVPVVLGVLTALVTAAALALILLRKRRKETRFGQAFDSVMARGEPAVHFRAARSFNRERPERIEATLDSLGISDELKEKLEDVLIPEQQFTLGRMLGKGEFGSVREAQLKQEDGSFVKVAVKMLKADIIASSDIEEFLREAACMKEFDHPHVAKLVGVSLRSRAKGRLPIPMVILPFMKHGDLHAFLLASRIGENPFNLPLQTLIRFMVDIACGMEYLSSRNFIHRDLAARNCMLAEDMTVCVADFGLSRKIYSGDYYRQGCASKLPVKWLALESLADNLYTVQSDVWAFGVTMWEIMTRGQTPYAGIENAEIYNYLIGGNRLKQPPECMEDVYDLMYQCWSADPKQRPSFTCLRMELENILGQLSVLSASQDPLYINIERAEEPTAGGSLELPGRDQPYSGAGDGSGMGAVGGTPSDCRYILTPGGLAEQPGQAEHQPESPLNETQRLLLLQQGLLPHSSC

Assay [15] has as its target T2, Serine/threonine-protein kinase Chk1 (Homo sapiens, UniProt O14757).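 Also: measured as one member of a kinome-wide kinase profiling panel.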
T2 sequence (O14757 whole entry): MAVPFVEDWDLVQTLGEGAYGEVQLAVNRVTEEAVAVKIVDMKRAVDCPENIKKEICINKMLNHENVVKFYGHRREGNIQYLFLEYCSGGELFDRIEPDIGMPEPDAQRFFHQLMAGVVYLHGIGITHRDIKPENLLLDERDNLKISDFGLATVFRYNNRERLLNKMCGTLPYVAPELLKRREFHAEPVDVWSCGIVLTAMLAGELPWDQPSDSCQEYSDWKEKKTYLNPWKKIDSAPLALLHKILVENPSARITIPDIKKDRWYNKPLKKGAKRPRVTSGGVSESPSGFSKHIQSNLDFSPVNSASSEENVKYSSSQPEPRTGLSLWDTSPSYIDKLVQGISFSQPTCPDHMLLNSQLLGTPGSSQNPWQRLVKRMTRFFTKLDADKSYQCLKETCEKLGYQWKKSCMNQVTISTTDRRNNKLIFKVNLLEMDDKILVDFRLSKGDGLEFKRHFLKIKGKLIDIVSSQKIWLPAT

Assay [16] has as its target Serine/threonine-protein kinase pim-1 (Homo sapiens, UniProt P11309).

Active and inactive are the calls of the source. Where only a bound is given, the exact number is not on record here.

Sequence of Tyrosine-protein kinase ABL1 (P00519 whole entry): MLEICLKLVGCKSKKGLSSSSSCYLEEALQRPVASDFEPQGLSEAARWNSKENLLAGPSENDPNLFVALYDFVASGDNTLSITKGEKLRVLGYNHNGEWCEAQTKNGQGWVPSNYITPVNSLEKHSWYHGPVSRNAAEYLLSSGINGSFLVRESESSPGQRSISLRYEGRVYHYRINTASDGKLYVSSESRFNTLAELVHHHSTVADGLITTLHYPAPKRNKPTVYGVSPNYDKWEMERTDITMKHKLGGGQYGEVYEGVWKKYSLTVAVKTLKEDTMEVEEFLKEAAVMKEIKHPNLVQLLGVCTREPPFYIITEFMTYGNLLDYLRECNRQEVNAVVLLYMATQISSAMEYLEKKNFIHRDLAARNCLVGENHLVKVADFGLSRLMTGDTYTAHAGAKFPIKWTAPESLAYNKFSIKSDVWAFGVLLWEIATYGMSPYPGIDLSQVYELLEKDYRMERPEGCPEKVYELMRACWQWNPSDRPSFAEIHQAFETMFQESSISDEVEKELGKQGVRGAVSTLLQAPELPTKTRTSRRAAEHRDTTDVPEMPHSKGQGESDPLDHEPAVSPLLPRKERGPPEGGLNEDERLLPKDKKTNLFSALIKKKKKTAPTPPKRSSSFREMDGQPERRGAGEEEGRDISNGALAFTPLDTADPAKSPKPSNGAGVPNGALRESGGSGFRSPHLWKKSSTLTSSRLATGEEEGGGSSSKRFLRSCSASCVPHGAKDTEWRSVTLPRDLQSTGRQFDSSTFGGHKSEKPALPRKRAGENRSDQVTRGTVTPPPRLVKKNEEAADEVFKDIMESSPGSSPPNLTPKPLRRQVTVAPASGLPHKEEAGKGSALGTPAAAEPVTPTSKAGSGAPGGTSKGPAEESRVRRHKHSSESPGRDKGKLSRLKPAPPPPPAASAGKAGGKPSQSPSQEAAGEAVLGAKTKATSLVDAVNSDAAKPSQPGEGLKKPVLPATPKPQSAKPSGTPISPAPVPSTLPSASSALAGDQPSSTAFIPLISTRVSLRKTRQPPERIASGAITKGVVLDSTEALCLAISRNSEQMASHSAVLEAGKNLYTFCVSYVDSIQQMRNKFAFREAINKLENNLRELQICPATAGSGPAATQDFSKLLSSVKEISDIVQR
Sequence of Serine/threonine-protein kinase TAO1 (Q7L7X3 whole entry): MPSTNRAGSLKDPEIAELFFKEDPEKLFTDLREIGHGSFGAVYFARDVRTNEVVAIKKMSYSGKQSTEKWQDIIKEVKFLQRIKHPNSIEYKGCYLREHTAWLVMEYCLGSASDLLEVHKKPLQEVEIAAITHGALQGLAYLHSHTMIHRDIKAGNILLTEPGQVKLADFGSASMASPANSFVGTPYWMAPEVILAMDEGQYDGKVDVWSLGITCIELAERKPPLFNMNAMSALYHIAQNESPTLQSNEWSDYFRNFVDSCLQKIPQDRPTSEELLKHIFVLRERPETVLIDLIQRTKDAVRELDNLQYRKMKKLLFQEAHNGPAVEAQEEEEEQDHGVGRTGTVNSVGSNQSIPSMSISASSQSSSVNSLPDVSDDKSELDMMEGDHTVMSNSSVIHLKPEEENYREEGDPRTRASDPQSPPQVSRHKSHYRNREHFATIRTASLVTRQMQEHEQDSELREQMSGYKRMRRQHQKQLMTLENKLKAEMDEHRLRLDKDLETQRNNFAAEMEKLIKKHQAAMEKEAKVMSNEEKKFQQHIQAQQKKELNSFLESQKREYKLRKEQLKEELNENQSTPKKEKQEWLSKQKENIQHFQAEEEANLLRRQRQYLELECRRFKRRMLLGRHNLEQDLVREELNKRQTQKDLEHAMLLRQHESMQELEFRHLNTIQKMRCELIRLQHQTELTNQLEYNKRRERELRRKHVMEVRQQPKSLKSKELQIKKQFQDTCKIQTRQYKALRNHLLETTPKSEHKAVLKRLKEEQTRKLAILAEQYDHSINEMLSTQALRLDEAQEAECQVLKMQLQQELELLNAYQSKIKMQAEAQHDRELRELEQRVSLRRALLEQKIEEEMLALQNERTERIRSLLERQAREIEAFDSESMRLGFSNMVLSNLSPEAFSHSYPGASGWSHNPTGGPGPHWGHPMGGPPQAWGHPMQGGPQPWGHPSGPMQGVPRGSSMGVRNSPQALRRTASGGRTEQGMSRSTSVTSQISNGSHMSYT
Sequence of Tyrosine-protein kinase JAK2 (O60674 whole entry): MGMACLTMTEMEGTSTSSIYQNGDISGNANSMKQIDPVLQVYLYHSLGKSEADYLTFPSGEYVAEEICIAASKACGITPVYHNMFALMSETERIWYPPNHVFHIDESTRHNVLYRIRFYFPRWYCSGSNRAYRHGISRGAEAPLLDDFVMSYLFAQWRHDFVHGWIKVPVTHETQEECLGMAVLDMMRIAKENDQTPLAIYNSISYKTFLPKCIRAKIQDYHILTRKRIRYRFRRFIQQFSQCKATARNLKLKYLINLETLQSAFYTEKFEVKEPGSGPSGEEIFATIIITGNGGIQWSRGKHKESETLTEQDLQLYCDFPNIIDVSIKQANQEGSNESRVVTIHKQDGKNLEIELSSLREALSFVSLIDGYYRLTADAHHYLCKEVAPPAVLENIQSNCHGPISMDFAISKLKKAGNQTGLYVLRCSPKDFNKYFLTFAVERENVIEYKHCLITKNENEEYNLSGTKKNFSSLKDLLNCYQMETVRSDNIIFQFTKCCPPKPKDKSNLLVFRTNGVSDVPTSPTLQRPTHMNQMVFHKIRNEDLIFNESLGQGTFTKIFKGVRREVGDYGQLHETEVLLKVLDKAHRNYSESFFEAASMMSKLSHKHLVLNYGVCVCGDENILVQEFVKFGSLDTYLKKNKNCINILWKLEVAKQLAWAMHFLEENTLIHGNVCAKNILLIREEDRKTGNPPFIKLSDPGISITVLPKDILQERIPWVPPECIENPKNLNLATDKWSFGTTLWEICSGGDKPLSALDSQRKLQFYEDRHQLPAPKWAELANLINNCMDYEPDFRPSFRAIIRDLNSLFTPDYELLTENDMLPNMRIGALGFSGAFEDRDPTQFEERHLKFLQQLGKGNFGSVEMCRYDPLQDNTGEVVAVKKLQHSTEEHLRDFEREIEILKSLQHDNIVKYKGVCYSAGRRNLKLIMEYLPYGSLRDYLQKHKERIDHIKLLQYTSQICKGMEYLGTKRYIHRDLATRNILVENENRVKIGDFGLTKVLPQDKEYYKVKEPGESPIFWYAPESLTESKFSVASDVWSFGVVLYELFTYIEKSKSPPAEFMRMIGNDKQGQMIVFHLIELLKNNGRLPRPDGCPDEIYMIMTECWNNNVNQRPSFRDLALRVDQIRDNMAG
Sequence of Cyclin-dependent kinase 7 (P50613 whole entry): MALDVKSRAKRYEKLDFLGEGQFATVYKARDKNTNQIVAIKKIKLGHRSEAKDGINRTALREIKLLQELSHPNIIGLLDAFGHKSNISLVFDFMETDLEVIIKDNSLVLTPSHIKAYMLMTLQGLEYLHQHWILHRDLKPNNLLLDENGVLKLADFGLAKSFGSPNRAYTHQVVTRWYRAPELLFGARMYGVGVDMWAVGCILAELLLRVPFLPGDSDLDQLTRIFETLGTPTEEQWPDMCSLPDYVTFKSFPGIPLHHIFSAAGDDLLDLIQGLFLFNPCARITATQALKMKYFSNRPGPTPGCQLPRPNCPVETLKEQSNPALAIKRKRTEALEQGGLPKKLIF
Sequence of Glycogen synthase kinase-3 alpha (P49840 whole entry): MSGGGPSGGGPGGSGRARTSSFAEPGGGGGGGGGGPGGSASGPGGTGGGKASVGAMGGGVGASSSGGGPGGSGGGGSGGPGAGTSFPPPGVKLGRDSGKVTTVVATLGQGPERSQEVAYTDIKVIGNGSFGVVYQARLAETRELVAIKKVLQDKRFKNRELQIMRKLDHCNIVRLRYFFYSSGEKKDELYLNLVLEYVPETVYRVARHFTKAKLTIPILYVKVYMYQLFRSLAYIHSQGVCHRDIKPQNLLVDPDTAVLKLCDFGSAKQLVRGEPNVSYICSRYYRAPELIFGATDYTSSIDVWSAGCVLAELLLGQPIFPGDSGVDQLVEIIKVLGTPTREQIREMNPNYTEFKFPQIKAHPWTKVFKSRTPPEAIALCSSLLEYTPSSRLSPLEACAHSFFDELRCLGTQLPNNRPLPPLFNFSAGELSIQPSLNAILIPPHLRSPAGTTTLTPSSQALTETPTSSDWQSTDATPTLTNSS

Regarding `[2H]C([2H])([2H])Oc1cccc(C(C)NC(=O)c2sc(-c3ccncc3)nc2C)c1` (configuration not stated), the Ki in [1] is > 2510 nM (inactive); in assay [2], > 3980 nM (inactive); in assay [3], > 2510 nM (inactive); in [4], > 3980 nM (inactive); in assay [5], > 6310 nM (inactive); in [6], > 3980 nM (inactive). The Ki in [7] was > 6310 nM (inactive); in assay [8], 2000 nM (active); in assay [9], > 6310 nM (inactive); in [10] it was > 3980 nM (inactive); in [11], > 2510 nM (inactive); in assay [12], > 2510 nM (inactive). Further, the inhibition constant Ki was 3160 nM (active) in assay [13], > 3160 nM (inactive) in assay [14], > 3160 nM (inactive) in [15] and > 6310 nM (inactive) in assay [16].
Consider `Cc1n[nH]c2ccc(-c3cncc(OCC(N)Cc4ccc(Cl)c(Cl)c4)c3)cc12` (configuration not stated), for which the Ki was > 1580 nM (inactive) in [1]; 15.8 nM (active) in [2]; > 631 nM (inactive) in assay [3]; 20 nM (active) in [4]; > 794 nM (inactive) in assay [5]; 3160 nM (active) in assay [6]. Besides, the Ki in [7] is > 2510 nM (inactive); in [8], 31.6 nM (active); in [9] it was 631 nM (active); in assay [10], > 398 nM (inactive); in assay [11] it was > 2510 nM (inactive); in assay [12], > 7940 nM (inactive). Also, the Ki in [13] was 100 nM (active); in assay [14] it was > 2000 nM (inactive); in assay [15], 7940 nM (active); in [16] it was 6.31 nM (active).
